# According to PMC5095062, “The novel choline kinase inhibitor ICL-CCIC-0019 reprograms cellular metabolism and inhibits cancer cell growth” (Oncotarget, 2016):
# Key:
# HCT116 cells [1] = test: Mitochondrial respiration (Seahorse XF24); format: cell-based, human; conditions: 10 μM
# Experimental: Extracellular acidification and oxygen consumption rates (ECAR and OCR) were measured in a XF24 extracellular flux analyzer (Seahorse XF24 Extra Cellular Flux Analyzer, North Billerica, MA, USA). Basic XF assay medium was prepared as previously described supplemented with glucose, and the pH adjusted to 7.4 at 37°C. Indicated final concentrations of compounds were obtained by injecting appropriate amounts of compounds dissolved in DMSO or water and diluted in XF assay medium into ports. […] Indicated data points were obtained after 3 min mixing and 2 min wait, followed by 3 min of data collection. Data were normalized to the basal values.
# HCT116 cells [2] = test: TMRE mitochondrial membrane potential assay; format: cell-based, human; conditions: 10 μM, 24 h
# Experimental: HCT116 cells were cultured as above with indicated inhibitors and subject to the tetramethylrhodamine ethyl ester dye method (TMRE) membrane potential assay according to the manufacturers instruction (Abcam ab113852) prior to FACS analysis.
substance,measurement,setting,value
MN58B [reference compound],mitochondrial respiration immediately after adding inhibitor (acute effect),HCT116 cells [1],decreased mitochondrial respiration
same,TMRE-detectable mitochondrial membrane potential,HCT116 cells [2],decreased
